Assay [1] has as its target T1, pCOD (putative CO dehydrogenase; CoxSLM complex) (Rubrivivax gelatinosus, UniProt I0HW74+I0HW75).
T1 construct: gene coxL; native complex in soluble fraction, native PAGE band between 130 and 250 kDa; predicted 126 kDa (CoxL 84, CoxM 27, CoxS 17 kDa); band absent in coxL mutant; with Carbon monoxide dehydrogenase large chain; Carbon monoxide dehydrogenase small chain
T1 sequence (I0HW74 1-781): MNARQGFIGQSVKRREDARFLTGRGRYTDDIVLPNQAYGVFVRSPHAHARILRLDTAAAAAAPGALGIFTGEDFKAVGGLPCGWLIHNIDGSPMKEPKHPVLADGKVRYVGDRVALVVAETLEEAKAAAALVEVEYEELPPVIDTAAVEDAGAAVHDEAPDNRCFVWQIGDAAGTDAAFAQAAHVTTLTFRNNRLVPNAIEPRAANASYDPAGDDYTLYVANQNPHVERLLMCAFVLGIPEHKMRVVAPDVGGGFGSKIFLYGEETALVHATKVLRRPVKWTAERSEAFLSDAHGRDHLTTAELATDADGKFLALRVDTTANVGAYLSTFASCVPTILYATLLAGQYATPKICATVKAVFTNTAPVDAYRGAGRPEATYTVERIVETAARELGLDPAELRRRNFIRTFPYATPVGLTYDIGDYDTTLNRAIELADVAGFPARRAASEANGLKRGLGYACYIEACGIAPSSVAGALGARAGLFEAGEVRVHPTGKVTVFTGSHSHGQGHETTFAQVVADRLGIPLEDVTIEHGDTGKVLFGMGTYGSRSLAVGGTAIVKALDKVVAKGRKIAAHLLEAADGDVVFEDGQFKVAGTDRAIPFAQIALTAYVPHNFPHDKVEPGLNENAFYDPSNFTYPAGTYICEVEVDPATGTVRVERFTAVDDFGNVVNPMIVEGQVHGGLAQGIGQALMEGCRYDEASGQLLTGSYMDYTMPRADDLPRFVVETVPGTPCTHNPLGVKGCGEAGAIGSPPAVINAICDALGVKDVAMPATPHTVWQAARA
T1 sequence (I0HW75 1-265): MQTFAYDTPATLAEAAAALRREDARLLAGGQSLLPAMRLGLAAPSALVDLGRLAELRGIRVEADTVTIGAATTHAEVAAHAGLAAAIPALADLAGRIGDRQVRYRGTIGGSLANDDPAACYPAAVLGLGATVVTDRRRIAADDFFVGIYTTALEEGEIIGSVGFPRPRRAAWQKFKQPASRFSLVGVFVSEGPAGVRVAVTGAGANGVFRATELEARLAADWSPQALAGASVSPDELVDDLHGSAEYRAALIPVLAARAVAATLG
T1 sequence (I0HW73 1-155 partner): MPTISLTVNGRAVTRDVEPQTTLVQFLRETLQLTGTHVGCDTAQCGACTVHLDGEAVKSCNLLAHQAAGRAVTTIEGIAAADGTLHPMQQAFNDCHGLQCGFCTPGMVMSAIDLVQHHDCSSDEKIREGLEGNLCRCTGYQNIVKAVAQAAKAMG
As to the kind of experiment: in-gel NBT reductase activity, native PAGE of soluble fraction, no riboflavin. It is filed as biochemical. As to conditions: NBT 2 mg/mL; 50 mM Tris-HCl pH 7.6; room temperature, dark; no electron donor added; reduction may run through superoxide.

Assay [2] addresses T2, XDH (xanthine dehydrogenase) of R. gelatinosus (Rubrivivax gelatinosus, UniProt I0HWE5).
T2 construct: gene xdhB; native complex of about 250 kDa in soluble fraction, native PAGE band; XdhB 82 kDa, XdhA 54 kDa, XdhC 27 kDa; band absent in xdhB mutant; with Xanthine dehydrogenase, FAD and iron-sulfur subunit XdhA; Xanthine dehydrogenase subunit or accessory protein XdhC
T2 sequence (I0HWE5 1-778): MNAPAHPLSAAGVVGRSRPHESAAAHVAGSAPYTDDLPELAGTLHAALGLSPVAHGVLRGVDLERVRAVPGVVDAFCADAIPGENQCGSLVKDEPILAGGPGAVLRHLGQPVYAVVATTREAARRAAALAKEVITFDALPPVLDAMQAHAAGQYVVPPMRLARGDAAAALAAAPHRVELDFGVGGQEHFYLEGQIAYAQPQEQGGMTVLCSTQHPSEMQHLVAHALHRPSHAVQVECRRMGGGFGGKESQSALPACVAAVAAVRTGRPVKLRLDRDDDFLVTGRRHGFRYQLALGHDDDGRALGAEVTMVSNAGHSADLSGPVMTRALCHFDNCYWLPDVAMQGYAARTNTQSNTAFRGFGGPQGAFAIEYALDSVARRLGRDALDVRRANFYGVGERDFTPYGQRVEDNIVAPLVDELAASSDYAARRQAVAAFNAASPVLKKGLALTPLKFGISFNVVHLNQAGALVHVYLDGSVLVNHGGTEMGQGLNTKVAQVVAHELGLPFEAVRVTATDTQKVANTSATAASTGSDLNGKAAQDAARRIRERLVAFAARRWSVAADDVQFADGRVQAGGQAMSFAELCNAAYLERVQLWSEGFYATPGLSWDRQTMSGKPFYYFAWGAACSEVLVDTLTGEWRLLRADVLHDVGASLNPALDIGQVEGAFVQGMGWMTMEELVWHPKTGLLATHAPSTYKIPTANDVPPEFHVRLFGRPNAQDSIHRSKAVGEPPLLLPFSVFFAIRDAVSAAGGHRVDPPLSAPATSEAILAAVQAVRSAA
T2 sequence (I0HWE6 1-493 partner): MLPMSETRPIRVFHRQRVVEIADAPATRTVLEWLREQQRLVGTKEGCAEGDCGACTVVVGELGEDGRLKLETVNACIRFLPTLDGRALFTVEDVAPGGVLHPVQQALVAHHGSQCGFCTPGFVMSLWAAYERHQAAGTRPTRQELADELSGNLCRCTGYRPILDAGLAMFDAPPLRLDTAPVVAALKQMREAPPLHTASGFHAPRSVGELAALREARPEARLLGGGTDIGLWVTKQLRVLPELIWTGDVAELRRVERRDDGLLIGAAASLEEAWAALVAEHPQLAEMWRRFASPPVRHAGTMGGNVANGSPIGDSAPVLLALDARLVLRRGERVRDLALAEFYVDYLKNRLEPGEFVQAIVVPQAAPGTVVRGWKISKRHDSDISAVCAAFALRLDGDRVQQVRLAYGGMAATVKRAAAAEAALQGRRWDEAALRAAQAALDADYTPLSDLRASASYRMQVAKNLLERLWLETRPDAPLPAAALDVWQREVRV
As to the kind of experiment: in-gel NBT reductase activity, native PAGE of soluble fraction. It is filed as biochemical. To be noted: NBT 2 mg/mL as electron acceptor; 50 mM Tris-HCl pH 7.6; room temperature.

Experimental findings from publication PMC10434068, “Discriminating Susceptibility of Xanthine Oxidoreductase Family to Metals” (Microbiology Spectrum, 2023) are described below.

On to `COc1cc(-c2ccc(-n3nc(-c4ccccc4)n[n+]3-c3ccc([N+](=O)[O-])cc3)c(OC)c2)ccc1-n1nc(-c2ccccc2)n[n+]1-c1ccc([N+](=O)[O-])cc1` [nitroblue tetrazolium], for which, in assay [1], the “in-gel NBT reductase activity, native PAGE of soluble fraction, no riboflavin” value is given as “able to reduce NBT to NBT-formazan in the absence of riboflavin”.

Regarding `O=c1[nH]c(=O)c2[nH]cnc2[nH]1` [xanthine], the “in-gel NBT reductase activity, native PAGE of soluble fraction” value in assay [2] is “the addition of xanthine to the native PAGE gel revealed a second active band”.
